PMC10494213 (iScience, 2023)
Entries after “also recorded” stand apart in the source; their conditions may differ.

Tests used:
[1] = EEC 3, 10, 30 μg/L; cited from earlier work
[2] = test system: fish; settings: cited from earlier work
[3] = carp, Coote natural Marsh in Canada; cited from earlier work
[4] = test system: acetylcholine (ACh); test: ACh level in whole zebrafish by ELISA after 7-day CMZ exposure; format: in vivo; settings: 7-day exposure 1, 10, 100, 1000 μg/L vs control group
[5] = test system: zebrafish embryos and larvae; settings: 1 μg/L; cited from earlier work
[6] = test system: spermatozoa; settings: 2.0 and 20 mg/L; cited from earlier work
[7] = test system: acetylcholinesterase (AChE); test: AChE in whole zebrafish by ELISA after 7-day CMZ exposure; format: in vivo; settings: 7-day exposure 1, 10, 100, 1000 μg/L vs control group
[8] = test system: Glu; settings: zebrafish embryos, CMZ 1, 10, 100 μg/L; cited from earlier work
[9] = test system: zebrafish larvae; test: Zebrafish larval motor behavior; format: in vivo; settings: 7 days exposure
[10] = Uptake of CMZ in zebrafish muscle during 7-day water exposure; format: in vivo, zebrafish (Danio rerio); settings: male, other: water exposure (waterborne); for concentration at 7 d: muscle; for Kp at 7 d: muscle/plasma
[11] = test system: GABA; settings: zebrafish embryos, CMZ 1, 10, 100 μg/L; cited from earlier work
[12] = test system: gamma-aminobutyric acid (GABA); test: GABA level in whole zebrafish by ELISA after 7-day CMZ exposure; format: in vivo; settings: seven days of CMZ exposure vs control group (p<0.05; 1000 μg/L p<0.01)
[13] = cited from earlier work
[14] = test system: AChE; settings: muscle (10000 μg/L) and head (10 and 10000 μg/L), exposure of 63 days, p<0.05; cited from earlier work
[15] = test system: abat; test: Real-time PCR of neurotransmitter-related gene abat; format: in vivo, zebrafish; settings: seven days, four concentrations (1, 10, 100, 1000 μg/L) vs control, p<0.05
[16] = human; cited from earlier work
[17] = Measured fish plasma concentration; format: in vivo, zebrafish (Danio rerio); settings: for Measured FPC/Predicted FPC / Measured FPC: 7-day exposure; for Measured FPC: mean ± SD, n = 3
[18] = test system: glutamic acid (Glu); test: Glu level in whole zebrafish by ELISA after 7-day CMZ exposure; format: in vivo; settings: seven days of CMZ exposure vs control group (p<0.05; 1000 μg/L p<0.01)

CN[C@H]1CC[C@@H](c2ccc(Cl)c(Cl)c2)c2ccccc21 [Sertraline]
Predicted FPC vs Measured FPC [1]: very close | shelter-seeking behavior ([2]; when the FPC exceeded the human therapeutic threshold): statistically significant reductions

O=C(Nc1ccc(Cl)cc1)Nc1ccc(Cl)c(Cl)c1 [triclocarban]
measured BCFs relative to the predicted BCFs [3]: ≤ 3 times

NC(=O)N1c2ccccc2C=Cc2ccccc21 [CMZ, Carbamazepine]
level of ACh [4]: gradually decreased; also recorded: significantly decreased | movement and rest percentage of zebrafish embryos and larvae [5]: significantly affected | percentage of spermatozoa motile and velocity [6]: significantly reduce | level of AChE [7]: gradually decreased; also recorded: significantly decreased | Glu concentration [8]: reduced | total movement distance of the larvae ([9]; 1000 μg/L, p<0.05): significantly higher than that of the control group | total distance traveled by larvae ([9]; 1, 10, 100 μg/L, p>0.05): slightly lower than that of the control group, but there was no significant difference | concentration at 7 d ([10]; 10 μg/L): 35.4 ± 7.9 ng/g | concentration at 7 d ([10]; 100 μg/L): 420 ± 77.5 ng/g | concentration at 7 d ([10]; 1000 μg/L): 2330 ± 127 ng/g | Kp at 7 d ([10]; 10 μg/L): 0.26 ± 0.06 | Kp at 7 d ([10]; 100 μg/L): 0.14 ± 0.03 | Kp at 7 d ([10]; 1000 μg/L): 0.54 ± 0.03 | GABA concentration [11]: increased | GABA level [12]: appreciably increased | Dlipw ([13]; pH 7.4, ref http://www.chemspider.com/Chemical): 2.92 | AChE activity [14]: considerably increased | expression of the abat gene [15]: significantly down-regulated | maximum HTPC [16]: 12 mg/L | Measured FPC/Predicted FPC ([17]; external 1 μg/L): 1.84 ± 0.27 | Measured FPC ([17]; external 1 μg/L (nominal)): 25.47 ± 3.78 µg/L | Measured FPC ([17]; external 10 μg/L (nominal)): 1311.10 ± 80.26 µg/L | Measured FPC/Predicted FPC ([17]; external 100 μg/L): 2.14 ± 0.08 | Measured FPC ([17]; external 100 μg/L (nominal)): 2953.30 ± 109.20 µg/L | Measured FPC/Predicted FPC ([17]; external 1000 μg/L): 0.31 ± 0.01 | measured FPC value as share of the predicted value ([17]; external 1000 μg/L): 31.05% | concentration at 7 d ([17]; male, AB, zebrafish, plasma, other: water exposure (waterborne), corresponding FPCs, low ambient exposure 1 and 10 μg/L): 25.5 to 1310 ng/mL | ER values ([17]; ratio of HTPC and FSSPC, Equation 3, all exposure concentrations): < 1000 | Glu level [18]: appreciably increased

CCN(CC)C(=O)c1cccc(C)c1 [N,N-diethyl-m-toluamide]
measured BCFs relative to the predicted BCFs [3]: ≤ 3 times

O=C1Nc2ccc(Cl)cc2C(c2ccccc2)=NC1O (stereo not shown) [Oxazepam]
behavior in the novel tank diving test ([2]; fish exposed to 4.7 μg/L): statistically significant behavioral effect

O=C1NC(=O)C(c2ccccc2)(c2ccccc2)N1 [phenytoin]
measured BCFs relative to the predicted BCFs [3]: ≤ 3 times

C#C[C@]1(O)CC[C@H]2[C@@H]3CCC4=CC(=O)CC[C@@H]4[C@H]3CC[C@@]21CC [Levonorgestrel]
log Kow [13]: 3.72

CCC(=O)OCC(=O)[C@@]1(OC(=O)CC)[C@@H](C)C[C@H]2[C@@H]3CCC4=CC(=O)C=C[C@]4(C)[C@@]3(Cl)[C@@H](O)C[C@@]21C [Beclomethasone Dipropionate, beclomethasone dipropionate]
log Kow [13]: 3.69
